Source: patent US20240238423A9, “TETRAHYDROISOQUINOLINE HETEROBIFUNCTIONAL BCL-XL DEGRADERS” (Treeline Biosciences, Inc., priority 2022, published 2024)
Where two headings read alike, the source gives them in different places.

Molecular target: T1, Human BCL-XL protein (N-terminal HiBiT tagged BCL-XL in HT1080 cells) (Homo sapiens, UniProt Q07817)
T1 construct: expressed in transfected cells; host or cells: HT-1080 (ATCC CCL-121), stably transduced with lentivirus pLV-UBC-N-HiBiT-BCL-XL-PGK-puro and selected with puromycin
Test: HiBiT based degradation assay
Format: cell-based
Conditions: HT1080 cells expressing HiBiT-BCL-XL; for DC50: BCL-XL degradation
Procedure, shortened: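 This HiBiT degradation assay measured loss of BCL-XL in HT1080 cells that stably express an N-terminal HiBiT-BCL-XL fusion delivered by lentivirus. Cells were added to compound-spotted 384-well plates, and luminescence was read on a PHERAstar FSX reader. Signal was expressed relative to DMSO controls, curves were fitted by four-parameter logistic regression, and for hook-shaped curves the Ymin point served as the bottom plateau when calculating EC50.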

[1] = BCL-XL degradation normalized with DMSO control, 24 h

T1 sequence (Q07817 whole entry): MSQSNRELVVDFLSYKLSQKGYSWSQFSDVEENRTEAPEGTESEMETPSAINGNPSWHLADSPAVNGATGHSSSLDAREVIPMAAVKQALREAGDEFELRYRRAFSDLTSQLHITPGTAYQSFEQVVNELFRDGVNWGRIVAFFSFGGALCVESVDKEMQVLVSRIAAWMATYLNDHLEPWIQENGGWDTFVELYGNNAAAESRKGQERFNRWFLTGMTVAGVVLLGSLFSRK

| SMILES | Ymin (24 h) [1] | DC50 (24 h, read-out: EC50 (24 h)) [nM] | Ymin (6 h) (BCL-XL degradation normalized with DMSO control, 6 h) | DC50 (6 h, read-out: EC50 (6 h)) [nM] |
| --- | --- | --- | --- | --- |
| Cc1c(OCCCC2CCN(CC(=O)Nc3ccc4c(C5CCC(=O)NC5=O)nn(C)c4c3F)CC2)cccc1-c1ccc(N2CCc3cccc(C(=O)Nc4nc5ccccc5s4)c3C2)nc1C(=O)O (stereo not drawn) [Compound 302, 6-[8-(1,3-benzothiazol-2-ylcarbamoyl)-3,4-dihydro-1H-isoquinolin-2-yl]-3-[3-[3-[1-[2-[[3-(2,6-dioxo-3-piperidyl)-7-fluoro-1-methyl-indazol-6-yl]amino]-2-oxo-ethyl]-4-piperidyl]propoxy]-2-methyl-phenyl]pyridine-2-carboxylic acid] | B (50% ≤ Ymin < 70%) | < 100 |  |  |
| Cc1c(OCCC[C@@H]2CCN(CC(=O)Nc3ccc4c(C5CCC(=O)NC5=O)nn(C)c4c3)[C@@H](C)C2)cccc1-c1ccc(N2CCc3cccc(C(=O)Nc4nc5ccccc5s4)c3C2)nc1C(=O)O (stereo partly drawn) [Compound 343c, 6-(8-(benzo[d]thiazol-2-ylcarbamoyl)-3,4-dihydroisoquinolin-2(1H)-yl)-3-(3-(3-((2S,4R)-1-(2-((3-(2,6-dioxopiperidin-3-yl)-1-methyl-1H-indazol-6-yl)amino)-2-oxoethyl)-2-methylpiperidin-4-yl)propoxy)-2-methylphenyl)picolinic acid] | A (Ymin < 50%) | < 100 |  |  |
| Cc1c(O[C@H]2CC[C@H](CCCC(C)(C)N3CCN(c4cccc5c(C6CCC(=O)NC6=O)nn(C)c45)CC3)CC2)cccc1-c1ccc(N2CCc3cccc(C(=O)Nc4nc5ccccc5s4)c3C2)nc1C(=O)O (stereo partly drawn) [Compound 342a, 6-(8-(benzo[d]thiazol-2-ylcarbamoyl)-3,4-dihydroisoquinolin-2(1H)-yl)-3-(3-(((1s,4r)-4-(4-(4-(3-(2,6-dioxopiperidin-3-yl)-1-methyl-1H-indazol-7-yl)piperazin-1-yl)-4-methylpentyl)cyclohexyl)oxy)-2-methylphenyl)picolinic acid] | A (Ymin < 50%) | < 100 |  |  |
| Cc1c(-c2ccc(N3CCc4cccc(C(=O)Nc5nc6ccccc6s5)c4C3)nc2C(=O)NCCCCCCCCCC(=O)Nc2ccc3c(C4CCC(=O)NC4=O)nn(C)c3c2)cnn1CC12CC3CC(CC(C3)C1)C2 (stereo not drawn) [Compound 112, 2-[5-[1-(1-adamantylmethyl)-5-methyl-pyrazol-4-yl]-6-[[10-[[3-(2,6-dioxo-3-piperidyl)-1-methyl-indazol-6-yl]amino]-10-oxo-decyl]carbamoyl]-2-pyridyl]-N-(1,3-benzothiazol-2-yl)-3,4-dihydro-1H-isoquinoline-8-carboxamide] |  |  | B (50% ≤ Ymin < 70%) | < 100 |

The next lines start with the values.

| Ymin (24 h) [1] | DC50 (24 h, read-out: EC50 (24 h)) [nM] | Ymin (6 h) (BCL-XL degradation normalized with DMSO control, 6 h) | DC50 (6 h, read-out: EC50 (6 h)) [nM] | SMILES |
| --- | --- | --- | --- | --- |
| C (Ymin ≥ 70%) | < 100 |  |  | Cc1c(O[C@H]2CC[C@H](CCCN3CCN(c4cccc5c(C6CCC(=O)NC6=O)nn(C)c45)C[C@@H]3C)CC2)cccc1-c1ccc(N2CCc3cccc(C(=O)Nc4nc5ccccc5s4)c3C2)nc1C(=O)O (stereo partly drawn) [Compound 275b, 6-(8-(benzo[d]thiazol-2-ylcarbamoyl)-3,4-dihydroisoquinolin-2(1H)-yl)-3-(3-(((1R,4r)-4-(3-((2S)-4-(3-(2,6-dioxopiperidin-3-yl)-1-methyl-1H-indazol-7-yl)-2-methylpiperazin-1-yl)propyl)cyclohexyl)oxy)-2-methylphenyl)picolinic acid] |
| A (Ymin < 50%) | < 100 |  |  | Cc1c(OCCC2CCN(CCN3CCC(c4cccc5c(C6CCC(=O)NC6=O)nn(C)c45)CC3)CC2)cccc1-c1ccc(N2CCc3cccc(C(=O)Nc4nc5ccccc5s4)c3C2)nc1C(=O)O (stereo not drawn) [Compound 249, 6-[8-(1,3-benzothiazol-2-ylcarbamoyl)-3,4-dihydro-1H-isoquinolin-2-yl]-3-[3-[2-[1-[2-[4-[3-(2,6-dioxo-3-piperidyl)-1-methyl-indazol-7-yl]-1-piperidyl]ethyl]-4-piperidyl]ethoxy]-2-methyl-phenyl] pyridine-2-carboxylic acid] |
